# Source: patent US7001921B1, “Cell adhesion inhibitors” (Biogen Idec MA Inc., priority 1995, dated 2006)
# Molecular target: T1, VLA4 (Homo sapiens, UniProt P05556+P13612)
# T1 construct: endogenous in cells; host or cells: Ramos cells
# Experiment: Inhibition of VLA4-dependent adhesion to BSA-CS1 (labelled Ramos cells)
# Format: cell-based
# Conditions: binding of BCECF-AM labelled Ramos cells to CS1 peptide-coated wells, 2 mM MnCl2, 30 minutes at room temperature; IC50 range
# Description: For example, the cell adhesion inhibitory activity of these compounds may be measured by determining the concentration of inhibitor required to block the binding of VLA-4-expressing cells to fibronectin- or CS1-coated plates. In this assay microtiter wells are coated with either fibronectin (containing the CS-1 sequence) or CS-1. If CS-1 is used, it must be conjugated to a carrier protein, such as bovine serum albumin, in order to bind to the wells. Once the wells are coated, varying concentrations of the test compound are then added together with appropriately labelled, VLA-4-expressing cells. Alternatively, the test compound may be added first and allowed to incubate with the coated wells prior to the addition of the cells. The cells are allowed to incubate in the wells for at least 30 minutes. Following incubation, the wells are emptied and washed. Inhibition of binding is measured by quantitating the fluorescence or radioactivity bound to the plate for each of the various concentrations of test compound, as well as for controls containing no test compound.
# VLA-4-expressing cells that may be utilized in this assay include Ramos cells, Jurkat cells, A375 melanoma cells, as well as human peripheral blood lymophocytes (PBLs). The cells used in this assay may be fluorescently or radioactively labelled.
# This assay was used to assess the potency of VLA4-directed inhibitory compounds of this invention.
# We dissolved BSA-SMCC (Pierce Chemical, Rockford, Ill.; Catalog # 77115) in H2O at a concentration of 10 mg/mL. [SEQ ID NO:4]: […](“Cys-Tyr-CS1 peptide”), which we synthesized by conventional solid phase chemistry and purified by HPLC, was dissolved in 10 mM HEPES pH 5, 50 mM NaCl and 0.1 mM EDTA also at a concentration of 10 mg/mL. We then mixed 500 μL of BSA-SMCC, 250 μL of Cys-Tyr-CS1 peptide and 75 μL of […] and allowed the conjugation reaction to proceed for 30 minutes. We stopped the reaction by adding 1 μL of beta-mercaptoethanol. Samples were analyzed for cross-linking by SDS-PAGE. This reaction produced multiple molecules of the Cys-Tyr-CS1 peptide conjugate to each BSA molecule.
# We coated the wells of a Linbro titertek polystyrene 96-well flat bottom plate (Flow Laboratories, Maclean, Va.; catalog #76-231-05) with 100 μL of the above-described BSA-CS1 solution diluted to 1 μg/mL in 0.05 M NaHCO3 (15 mM NaHCO3, 35 mM Na2CO3) pH 9.2. Some wells were not coated with CS1 in order to assess non-specific cell binding (NSB). The plate was then incubated overnight at 4° C.
# Following this incubation, the contents of the wells were removed by inverting and blotting the plate. All of the wells were then blocked with 100 μL of 1% BSA in PBS, 0.02% NaN3, for a minimum of one hour at room temperature.
# 3. Preparation of Fluorescently Labelled Ramos Cells Ramos cells are grown, maintained and labelled in RPMI 1640 culture medium containing 1% BSA. Just prior to running the assay, we added 2′,7′-bis-(2-carboxyethyl)5 (and -6) carboxyfluorescein acetoxymethyl ester (“BCECF-AM”; Molecular Probes Inc., Eugene, Oreg.; catalog #B-1150) to a final concentration of 2 μM to a culture of Ramos cells (4×10^6 cells/mL). We incubated the cells for 20 minutes at 37° C.
# Following labelling, the cells were washed twice in assay buffer (24 mM TRIS, 137 mM NaCl, 2.7 mM KCl, pH 7.4, containing 0.1% BSA and 2 mM glucose) to remove any cations originating from the culture medium. The cells were then resuspended in assay buffer to 4×10^6 cells/mL and 2 mM MnCl2 was added to upregulate VLA4 on the surface of the cells.
# Immediately prior to running the assay, we removed the BSA blocking solution from the 96-well plates and washed the wells with 100 μL of assay buffer. We then added to each well 25 μL of test cell adhesion inhibitory compound at 2× the final concentration and 25 μL of the labelled Ramos cells. Final concentrations were selected across a range of anticipated IC50s, usually between 0.01 nM–10 μM. […]
# T1 sequence (P13612 34-1032): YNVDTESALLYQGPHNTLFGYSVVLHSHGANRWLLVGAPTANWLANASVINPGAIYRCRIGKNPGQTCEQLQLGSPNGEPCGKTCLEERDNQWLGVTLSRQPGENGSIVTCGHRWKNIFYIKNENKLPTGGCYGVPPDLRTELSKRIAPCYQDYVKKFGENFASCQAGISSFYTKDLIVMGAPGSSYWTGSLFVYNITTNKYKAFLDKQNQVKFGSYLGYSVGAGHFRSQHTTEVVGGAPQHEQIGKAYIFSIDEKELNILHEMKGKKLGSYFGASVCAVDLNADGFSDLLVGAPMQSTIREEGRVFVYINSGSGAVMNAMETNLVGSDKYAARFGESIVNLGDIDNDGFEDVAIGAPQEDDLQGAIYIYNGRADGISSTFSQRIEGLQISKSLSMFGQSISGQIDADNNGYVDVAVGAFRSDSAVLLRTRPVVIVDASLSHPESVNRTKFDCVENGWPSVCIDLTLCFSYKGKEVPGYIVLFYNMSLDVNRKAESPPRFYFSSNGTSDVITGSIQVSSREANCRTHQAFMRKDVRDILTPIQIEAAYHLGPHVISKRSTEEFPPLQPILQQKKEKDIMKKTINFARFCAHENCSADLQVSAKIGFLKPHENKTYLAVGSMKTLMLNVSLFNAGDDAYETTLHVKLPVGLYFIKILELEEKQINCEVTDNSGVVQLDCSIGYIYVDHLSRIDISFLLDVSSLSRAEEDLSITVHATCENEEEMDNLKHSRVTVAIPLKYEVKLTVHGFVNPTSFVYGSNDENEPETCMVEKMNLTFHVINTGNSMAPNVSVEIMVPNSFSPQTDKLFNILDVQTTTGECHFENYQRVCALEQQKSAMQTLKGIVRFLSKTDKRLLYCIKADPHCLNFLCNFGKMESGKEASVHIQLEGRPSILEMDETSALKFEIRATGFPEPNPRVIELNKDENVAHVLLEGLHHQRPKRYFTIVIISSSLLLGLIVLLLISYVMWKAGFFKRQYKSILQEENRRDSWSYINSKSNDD
# T1 sequence (P05556 21-798): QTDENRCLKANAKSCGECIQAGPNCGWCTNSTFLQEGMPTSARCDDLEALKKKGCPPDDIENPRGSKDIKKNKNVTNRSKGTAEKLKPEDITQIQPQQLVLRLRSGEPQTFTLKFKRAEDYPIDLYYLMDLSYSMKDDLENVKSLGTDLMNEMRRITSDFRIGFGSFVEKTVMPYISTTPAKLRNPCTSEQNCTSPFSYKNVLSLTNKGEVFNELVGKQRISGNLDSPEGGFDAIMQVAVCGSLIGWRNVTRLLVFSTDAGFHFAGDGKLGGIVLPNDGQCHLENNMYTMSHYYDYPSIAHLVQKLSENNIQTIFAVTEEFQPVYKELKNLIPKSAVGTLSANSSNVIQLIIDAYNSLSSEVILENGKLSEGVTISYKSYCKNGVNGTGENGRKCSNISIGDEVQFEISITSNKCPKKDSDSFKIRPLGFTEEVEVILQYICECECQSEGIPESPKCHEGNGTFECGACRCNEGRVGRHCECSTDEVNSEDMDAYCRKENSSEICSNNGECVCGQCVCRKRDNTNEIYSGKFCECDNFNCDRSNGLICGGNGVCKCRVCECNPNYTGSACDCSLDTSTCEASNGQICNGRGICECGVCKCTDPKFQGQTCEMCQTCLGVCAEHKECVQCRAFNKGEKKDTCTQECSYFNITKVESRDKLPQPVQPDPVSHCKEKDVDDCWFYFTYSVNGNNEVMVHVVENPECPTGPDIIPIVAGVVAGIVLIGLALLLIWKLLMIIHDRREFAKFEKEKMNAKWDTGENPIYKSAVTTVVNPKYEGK
row,SMILES,IC50
1,CC(C)CC(NC(=O)Cc1ccccn1)C(=O)NC(CC(=O)O)c1ccccc1 (stereo not shown) [compound 1004],> 10 µM
2,CC(C)CC(NC(=O)Cc1cccnc1)C(=O)NC(CC(=O)O)c1ccccc1 (stereo not shown) [compound 1005],> 10 µM
3,CC(C)CC(NC(=O)Cc1ccc(O)cc1)C(=O)NC(CC(=O)O)c1ccc2c(c1)OCO2 (stereo not shown) [compound 1006],0.05 to 10 µM
4,CC(C)CC(NC(=O)Cc1ccncc1)C(=O)NC(CC(=O)O)c1ccccc1 (stereo not shown) [compound 1007],> 10 µM
5,CC(C)CC(NC(=O)c1c[nH]c2ccccc12)C(=O)NC(CC(=O)O)c1ccccc1 (stereo not shown) [compound 1014],> 10 µM
6,CC(C)CC(NC(=O)C1(c2ccccc2)CC1)C(=O)NC(CC(=O)O)c1ccccc1 (stereo not shown) [compound 1017],> 10 µM
7,CC(=O)Nc1cccc(CC(=O)NC(CC(C)C)C(=O)NC(CC(=O)O)c2ccccc2)c1 (stereo not shown) [compound 1018],> 10 µM
8,CC(C)CC(NC(=O)Cc1ccccc1NC(=O)OCc1ccccc1)C(=O)NC(CC(=O)O)c1ccccc1 (stereo not shown) [compound 1027],> 10 µM
9,CC(C)CC(NC(=O)Cc1ccccc1)C(=O)NC(CC(=O)O)c1ccc2c(c1)CCC2 (stereo not shown) [compound 1036],0.05 to 10 µM
10,O=C(O)CC(NC(=O)C(Cc1nccs1)NC(=O)Cc1ccc(NC(=O)Nc2ccccc2)cc1)c1ccccc1 (stereo not shown) [compound 1037],0.05 to 10 µM
11,CCCC(NC(=O)Cc1ccccc1)C(=O)NC(CC(=O)O)c1ccccc1 (stereo not shown) [compound 1038],> 10 µM
12,CCCCC(NC(=O)Cc1ccccc1)C(=O)NC(CC(=O)O)c1ccccc1 (stereo not shown) [compound 1039],0.05 to 10 µM
13,CCC(C)C(NC(=O)Cc1ccccc1)C(=O)NC(CC(=O)O)c1ccccc1 (stereo not shown) [compound 1040],0.05 to 10 µM
14,O=C(O)CC(NC(=O)C(Cc1ccccc1)NC(=O)Cc1ccccc1)c1ccccc1 (stereo not shown) [compound 1046],> 10 µM
15,CC(C)CC(NC(=O)Cc1ccc(NC(=O)Nc2ccccc2)cc1)C(=O)NC(CC(=O)O)c1ccc2c(c1)OCO2 (stereo not shown) [compound 1050],< 0.05 µM
16,CC(C)CC(C(=O)NC(CC(=O)O)c1ccccc1)N(C)C(=O)Cc1ccc(NC(=O)Nc2ccccc2)cc1 (stereo not shown) [compound 1053],0.05 to 10 µM

row,SMILES,IC50
1,CC(C)CC(C(=O)NC(CC(=O)O)c1ccc2c(c1)OCO2)N(C)C(=O)Cc1ccc(NC(=O)Nc2ccccc2)cc1 (stereo not shown) [compound 1055],< 0.05 µM
2,COc1cc(CC(=O)NC(CC(C)C)C(=O)NC(CC(=O)O)c2ccc3c(c2)OCO3)ccc1NC(=O)Nc1ccccc1 (stereo not shown) [compound 1056],< 0.05 µM
3,CC(C)CC(NC(=O)Cc1ccc(NC(=O)Nc2ccccc2)cc1)C(=O)NC(CC(=O)O)Cc1ccccc1 (stereo not shown) [compound 1063],0.05 to 10 µM
4,CNC(=O)Nc1ccc(CC(=O)NC(CC(C)C)C(=O)NC(CC(=O)O)c2ccc3c(c2)OCO3)cc1 (stereo not shown) [compound 1064],0.05 to 10 µM
5,CC(C)CC(NC(=O)Cc1ccc(NC(=O)NC(C)C)cc1)C(=O)NC(CC(=O)O)c1ccc2c(c1)OCO2 (stereo not shown) [compound 1065],0.05 to 10 µM
6,CC(C)CC(NC(=O)Cc1ccc(NC(=O)NC2CCCCC2)cc1)C(=O)NC(CC(=O)O)c1ccc2c(c1)OCO2 (stereo not shown) [compound 1068],0.05 to 10 µM
7,COc1ccccc1C(CC(=O)O)NC(=O)C(CC(C)C)NC(=O)Cc1ccc(NC(=O)Nc2ccccc2)cc1 (stereo not shown) [compound 1069],< 0.05 µM
8,COc1ccccc1C(CC(=O)O)NC(=O)C(CC(C)C)NC(=O)Cc1ccc(O)cc1 (stereo not shown) [compound 1070],0.05 to 10 µM
9,COc1cccc(C(CC(=O)O)NC(=O)C(CC(C)C)NC(=O)Cc2ccc(NC(=O)Nc3ccccc3)cc2)c1 (stereo not shown) [compound 1072],< 0.05 µM
10,CC(C)CC(NC(=O)Cc1ccc(NC(=O)OCc2ccccc2)cc1)C(=O)NC(CC(=O)O)c1ccc2c(c1)OCO2 (stereo not shown) [compound 1073],0.05 to 10 µM
11,CC(C)CC(NC(=O)Cc1ccc(NS(=O)(=O)c2ccccc2)cc1)C(=O)NC(CC(=O)O)c1ccc2c(c1)OCO2 (stereo not shown) [compound 1074],0.05 to 10 µM
12,CC(C)CC(NC(=O)Cc1ccc(NC(=O)c2ccccc2)cc1)C(=O)NC(CC(=O)O)c1ccc2c(c1)OCO2 (stereo not shown) [compound 1075],0.05 to 10 µM
13,CCNC(=O)Nc1ccc(CC(=O)NC(CC(C)C)C(=O)NC(CC(=O)O)c2ccc3c(c2)OCO3)cc1 (stereo not shown) [compound 1077],0.05 to 10 µM
14,COc1cccc(NC(=O)Nc2ccc(CC(=O)NC(CC(C)C)C(=O)NC(CC(=O)O)c3ccc4c(c3)OCO4)cc2)c1 (stereo not shown) [compound 1078],0.05 to 10 µM
15,COc1ccccc1NC(=O)Nc1ccc(CC(=O)NC(CC(C)C)C(=O)NC(CC(=O)O)c2ccc3c(c2)OCO3)cc1 (stereo not shown) [compound 1079],< 0.05 µM
16,CC(C)CC(NC(=O)Cc1ccc(NC(=O)Nc2cccnc2)cc1)C(=O)NC(CC(=O)O)c1ccc2c(c1)OCO2 (stereo not shown) [compound 1080],0.05 to 10 µM

# More lines, now with the values ahead:
row,IC50,SMILES
1,> 10 µM,CC(C)CC(NC(=O)c1ccccc1)C(=O)NC(CC(=O)O)c1ccccc1 (stereo not shown) [compound 1008]
2,> 10 µM,CC(C)CC(NC(=O)Cc1ccc(-c2ccccc2)cc1)C(=O)NC(CC(=O)O)c1ccccc1 (stereo not shown) [compound 1009]
3,0.05 to 10 µM,CC(C)CC(NC(=O)Cc1ccc(Cl)cc1)C(=O)NC(CC(=O)O)c1ccccc1 (stereo not shown) [compound 1010]
4,> 10 µM,CC(C)CC(NC(=O)Cc1ccc(C(F)(F)F)cc1)C(=O)NC(CC(=O)O)c1ccccc1 (stereo not shown) [compound 1011]
5,0.05 to 10 µM,CC(C)CC(NC(=O)Cc1ccc(NC(=O)c2ccccc2)cc1)C(=O)NC(CC(=O)O)c1ccccc1 (stereo not shown) [compound 1015]
6,> 10 µM,CC(C)CC(NC(=O)Cc1ccc(N)cc1)C(=O)NC(CC(=O)O)c1ccccc1 (stereo not shown) [compound 1016]
7,> 10 µM,CC(C)CC(NC(=O)Cc1cccc(NC(=O)c2ccccc2)c1)C(=O)NC(CC(=O)O)c1ccccc1 (stereo not shown) [compound 1020]
8,0.05 to 10 µM,CC(C)CC(NC(=O)Cc1cccc2ccccc12)C(=O)NC(CC(=O)O)c1ccccc1 (stereo not shown) [compound 1021]
9,> 10 µM,CC(C)CC(NC(=O)Cc1ccc2ccccc2c1)C(=O)NC(CC(=O)O)c1ccccc1 (stereo not shown) [compound 1022]
10,0.05 to 10 µM,CC(C)CC(NC(=O)Cc1ccc(NC(=O)Cc2ccccc2)cc1)C(=O)NC(CC(=O)O)c1ccccc1 (stereo not shown) [compound 1023]
11,> 10 µM,CC(C)CC(NC(=O)Cc1ccccc1N)C(=O)NC(CC(=O)O)c1ccccc1 (stereo not shown) [compound 1024]
12,> 10 µM,CC(C)CC(NC(=O)Cc1ccccc1NC(=O)c1ccccc1)C(=O)NC(CC(=O)O)c1ccccc1 (stereo not shown) [compound 1026]
13,0.05 to 10 µM,CC(C)CC(NC(=O)Cc1ccc(NC(=O)c2ccccc2N)cc1)C(=O)NC(CC(=O)O)c1ccccc1 (stereo not shown) [compound 1028]
14,> 10 µM,CNC(=O)Nc1ccccc1C(=O)Nc1ccc(CC(=O)NC(CC(C)C)C(=O)NC(CC(=O)O)c2ccccc2)cc1 (stereo not shown) [compound 1029]
15,> 10 µM,CC(C)CC(NC(=O)Cc1cccc(N)c1)C(=O)NC(CC(=O)O)c1ccccc1 (stereo not shown) [compound 1030]
16,> 10 µM,CC(C)CC(NC(=O)Cc1cccc(NC(=O)OCc2ccccc2)c1)C(=O)NC(CC(=O)O)c1ccccc1 (stereo not shown) [compound 1031]
17,> 10 µM,CC(C)CC(NC(=O)Cc1cccc(NS(=O)(=O)c2ccccc2)c1)C(=O)NC(CC(=O)O)c1ccccc1 (stereo not shown) [compound 1032]
18,0.05 to 10 µM,CC(C)CC(NC(=O)CCc1ccc(NC(=O)Nc2ccccc2)cc1)C(=O)NC(CC(=O)O)c1ccccc1 (stereo not shown) [compound 1052]
19,0.05 to 10 µM,CC(C)CC(NC(=O)Cc1cccc(NC(=O)Nc2ccccc2)c1)C(=O)NC(CC(=O)O)c1ccccc1 (stereo not shown) [compound 1054]
20,0.05 to 10 µM,CC(C)CC(NC(=O)Cc1ccc(NC(=O)Nc2ccccc2)cc1)C(=O)NC(CC(=O)O)c1ccccc1 (stereo not shown) [compound 1060]
